Measurements published in patent US20160158200A1, “Combinations of Hepatitis C Virus Inhibitors” (priority 2013, published 2016).

Assays:
[1] = test system: HCV genotype 1a Y93H variant with tyrosine 93 changed to histidine in the NS5A protein; assay: microbe, parasite or virus in culture; type: cell-based; details: genotype 1a Y93H replicon; test compound titrated with compound N47 fixed at 200 nM versus singly
Experimental: Combinations can be examined for synergistic activity using a variety of putative NS5A-targeting compounds and a variety of test compounds. […] The test compound can be chosen from compounds exemplified below, which were prepared by methods known in the art, or from others disclosed in the literature.
Similarly, BMS-790052 can be tested singly and in combination with a fixed amount of compound N47 in the HCV replicon cell based assay consisting of the genotype 1a Y93H variant with tyrosine 93 changed to histidine in the NS5A protein.

[2] = test system: HCV genotype 1a L31V variant with leucine 31 changed to valine in the NS5A protein; assay: microbe, parasite or virus in culture; type: cell-based; details: genotype 1a L31V replicon; test compound titrated with compound N47 fixed at 200 nM versus singly

| Compound | Fold-Synergistic G-1a (Y93H) [1] [fold] | Fold-Synergistic G-1a (L31V) [2] [fold] |
| --- | --- | --- |
| COC(=O)N[C@H](C(=O)N1CCC[C@H]1c1ncc(-c2ccc(-c3ccc4cc(-c5cnc([C@@H]6CCCN6C(=O)[C@@H](NC(=O)OC)C(C)C)[nH]5)ccc4c3)cc2)[nH]1)C(C)C | >10 | <10 |
| COC(=O)N[C@H](C(=O)N1[C@@H]2C[C@@H]2C[C@H]1c1nc(-c2cccc3c(-c4ccc(-c5cnc([C@@H]6C[C@H]7C[C@H]7N6C(=O)[C@@H](NC(=O)OC)C(C)C)[nH]5)cc4)cccc23)c[nH]1)C(C)C | >100 | >100 |
| COC(=O)N[C@H](C(=O)N1[C@@H](C)CC[C@H]1c1ncc(-c2ccc(-c3ccc(-c4cnc([C@@H]5CC[C@H](C)N5C(=O)[C@@H](NC(=O)OC)C(C)C)[nH]4)cc3)cc2)[nH]1)C(C)C | >100 | >100 |
| CN(C)[C@@H](C(=O)Nc1cccc(-c2ncc(-c3ccc4nc([C@@H]5CCCN5C(=O)[C@@H](c5ccccc5)N(C)C)[nH]c4c3)o2)c1)c1ccccc1 | <10 | <10 |
| CN1CCN(C(C(=O)N2CCC[C@H]2C(=O)Nc2ccc(C#Cc3ccc(NC(=O)[C@@H]4CCCN4C(=O)C(c4ccccc4)N4CCN(C)CC4)cc3)cc2)c2ccccc2)CC1 (stereo partly shown) | <10 | <10 |
| COC(=O)N[C@@H](C(=O)N1CCC[C@H]1c1ncc(C#CC#Cc2cnc([C@@H]3CCCN3C(=O)[C@H](NC(=O)OC)c3ccccc3)[nH]2)[nH]1)c1ccccc1 | <10 | <10 |
| COC(=O)N[C@H](C(=O)N1CCC[C@H]1c1ncc(-c2cccc(C#Cc3cccc(-c4cnc([C@@H]5CCCN5C(=O)[C@@H](NC(=O)OC)C(C)C)[nH]4)c3)c2)[nH]1)C(C)C | >10 | >10 |
| COC(=O)N[C@H](C(=O)N1C2CC2C[C@H]1c1nc2ccc3cc(C#Cc4ccc5c(ccc6nc([C@@H]7C[C@H]8C[C@H]8N7C(=O)[C@@H](NC(=O)OC)C(C)C)[nH]c65)c4)ccc3c2[nH]1)C(C)C (stereo partly shown) | >100 | <10 |
| COC(=O)N[C@H](C(=O)N1[C@@H]2C[C@@H]2C[C@H]1c1ncc(-c2ccc(-c3ccc4cc(-c5cnc([C@@H]6C[C@H]7C[C@H]7N6C(=O)[C@@H](NC(=O)OC)C(C)C)[nH]5)ccc4c3)cc2)[nH]1)C(C)C | >10 | <10 |
| C[C@H](NC(=O)[C@@H](O)c1ccccc1)C(=O)Nc1ccc(-c2cnc(-c3ccc(NC(=O)[C@H](C)NC(=O)[C@@H](O)c4ccccc4)cc3)o2)cc1 | <10 | <10 |
| O=C(Nc1ccc(/C=C/c2ccc(NC(=O)[C@@H]3CCCN3C(=O)Cc3ccccc3)cc2)cc1)[C@@H]1CCCN1C(=O)Cc1ccccc1 | <10 | <10 |
| COC(=O)N[C@H](C(=O)N1C2CC2CC[C@H]1c1ncc(-c2ccc(-c3ccc(-c4cnc([C@@H]5CCC6CC6N5C(=O)[C@@H](NC(=O)OC)C(C)C)[nH]4)cc3)cc2)[nH]1)C(C)C (stereo partly shown) [drawing 2298] | >100 | >100 |
| CN(C)[C@@H](C(=O)N1CCC[C@H]1C(=O)Nc1cccc(-c2ncc(-c3ccc4nc([C@@H]5CCCN5C(=O)[C@@H](c5ccccc5)N(C)C)[nH]c4c3)o2)c1)c1ccccc1 | <10 | <10 |
| O=C(Nc1ccc(/C=C/c2ccc(NC(=O)[C@@H]3COCN3C(=O)OCc3ccccc3)cc2)cc1)[C@@H]1COCN1C(=O)OCc1ccccc1 | <10 | <10 |
| COC(=O)N[C@H](C(=O)N1CCC[C@H]1c1nc2ccc(-c3cnc(-c4cccc5nc([C@@H]6CCCN6C(=O)[C@@H](NC(=O)OC)C(C)C)[nH]c45)o3)cc2[nH]1)C(C)C | >100 | <10 |
| COC(=O)NC(C(=O)N1[C@@H](C)CC[C@H]1c1ncc(-c2ccc(-c3cnc(-c4cnc([C@@H]5CC[C@H](C)N5C(=O)[C@@H](NC(=O)OC)[C@H]5C[C@@H](C)O[C@@H](C)C5)[nH]4)c4cccn34)cc2)[nH]1)[C@H]1C[C@@H](C)O[C@@H](C)C1 (stereo partly shown) | >100 | >10 |
| COC(=O)N[C@H](C(=O)N1CCC[C@H]1c1nc(-c2ccc(-c3ccc4c(c3)CCCCc3[nH]c([C@@H]5CCCN5C(=O)[C@@H](NC(=O)OC)C(C)C)nc3-4)cc2)c[nH]1)C(C)C | >100 | >100 |
| COC(=O)N[C@H](C(=O)N1CC2(CC2)C[C@H]1c1nc(-c2ccc3c(c2)C(F)(F)c2cc(-c4ccc5nc([C@@H]6[C@H]7CC[C@H](C7)N6C(=O)[C@@H](NC(=O)OC)C(C)C)[nH]c5c4)ccc2-3)c[nH]1)C(C)C | >100 | >10 |

| Compound | Fold-Synergistic G-1a (Y93H) [1] [fold] | Fold-Synergistic G-1a (L31V) [2] [fold] |
| --- | --- | --- |
| CN(C)[C@@H](C(=O)N1CCCC[C@H]1c1ncc(-c2ccc(-c3ccc(-c4cnc([C@@H]5CCCCN5C(=O)[C@@H](c5ccccc5)N(C)C)[nH]4)cc3)cc2)[nH]1)c1ccccc1 | >10 | <10 |
| COC(=O)N[C@H](C(=O)N1[C@@H]2C[C@@H]2C[C@H]1c1nc(-c2ccc3oc(-c4ccc(-c5cnc([C@@H]6C[C@H]7C[C@H]7N6C(=O)[C@@H](NC(=O)OC)C6CCOCC6)[nH]5)cc4)cc3c2)c[nH]1)C1CCOCC1 | <10 | <10 |
| O=C(Nc1ccc(-c2nnc(-c3ccc(NC(=O)[C@@H]4CCCN4C(=O)Cc4cccnc4)cc3)o2)cc1)[C@@H]1CCCN1C(=O)Cc1cccnc1 | <10 | <10 |
| COC(=O)N[C@H](C(=O)N1CCC[C@H]1c1nc2c([nH]1)CCc1cc(C#Cc3ccc4[nH]c([C@@H]5CCCN5C(=O)[C@@H](NC(=O)OC)C(C)C)nc4c3)ccc1-2)C(C)C | >100 | >100 |
| COC(=O)N[C@H](C(=O)N(C)[C@@H](C)c1ncc(-c2ccc(C#Cc3ccc(-c4cnc([C@H](C)N(C)C(=O)[C@@H](NC(=O)OC)C(C)C)[nH]4)cc3)cc2)[nH]1)C(C)C | <10 | >10 |
| COC(=O)N[C@H](C(=O)N1CCC[C@H]1c1nc(-c2ccc(C#Cc3ccc4[nH]c([C@@H]5CCCN5C(=O)[C@@H](NC(=O)OC)C(C)C)nc4c3)cc2)c[nH]1)C(C)C | >100 | >100 |
| COC(=O)N[C@H](C(=O)N1[C@@H]2C[C@@H]2C[C@H]1c1nc2ccc(-c3ccc4cc(-c5ccc6nc([C@@H]7C[C@H]8C[C@H]8N7C(=O)[C@@H](NC(=O)OC)C(C)C)[nH]c6c5)ccc4c3)cc2[nH]1)C(C)C | >10 | >10 |
| COC(=O)N[C@@H](C(=O)N1CCC[C@H]1c1nc2ccc(C(=O)c3ccc4nc([C@@H]5CCCN5C(=O)[C@H](NC(=O)OC)c5ccccc5)[nH]c4c3)cc2[nH]1)c1ccccc1 | <10 | <10 |
| COC(=O)N[C@H](C(=O)N1[C@@H]2C[C@@H]2C[C@H]1c1ncc(C#Cc2ccc3cc(-c4cnc([C@@H]5C[C@H]6C[C@H]6N5C(=O)[C@@H](NC(=O)OC)C(C)C)[nH]4)ccc3c2)[nH]1)C(C)C | >100 | >100 |
| CN(C)[C@@H](C(=O)N1CCC[C@H]1c1nc2ccc(-c3ncc([C@@H]4CCCN4C(=O)[C@@H](c4ccccc4)N(C)C)o3)cc2[nH]1)c1ccccc1 | <10 | <10 |
| COC(=O)N[C@H](C(=O)N1[C@@H]2C[C@@H]2C[C@H]1c1nc(-c2ccn3nc(-c4ccc(-c5cnc([C@@H]6C[C@H]7C[C@H]7N6C(=O)[C@@H](NC(=O)OC)C(C)C)[nH]5)cc4)cc3c2)c[nH]1)C(C)C | >100 | >100 |
| O=C(Cc1ccccc1)N1CCC[C@H]1c1nc2cc(C#Cc3ccc4nc([C@@H]5CCCN5C(=O)Cc5ccccc5)[nH]c4c3)ccc2[nH]1 | <10 | <10 |
| COC(=O)N[C@H](C(=O)N1CCC[C@H]1c1ncc(C#Cc2ccc(-c3ccc4nc([C@@H]5CCCN5C(=O)[C@@H](NC(=O)OC)C(C)C)[nH]c4c3)cc2)[nH]1)C(C)C | >100 | >100 |
| COC(=O)N[C@H](C(=O)N1CCC[C@H]1c1nc(C2=CCC(C3CC=C(c4c[nH]c([C@@H]5CCCN5C(=O)[C@@H](NC(=O)OC)C(C)C)n4)CC3)CC2)c[nH]1)C(C)C (stereo partly shown) | >100 | >100 |
| COc1ccc(-c2ccc(-c3cnc([C@@H]4CCCN4C(=O)[C@@H](c4ccccc4)N(C)C)[nH]3)cc2)cc1-c1cnc([C@@H]2CCCN2C(=O)[C@@H](c2ccccc2)N(C)C)[nH]1 | <10 | <10 |
| COC(=O)N[C@H](C(=O)N1[C@@H]2C[C@@H]2C[C@H]1c1nc2ccc(-c3ccc(-c4ccc5nc([C@@H]6C[C@H]7C[C@H]7N6C(=O)[C@@H](NC(=O)OC)C(C)C)[nH]c5c4)cc3)cc2[nH]1)C(C)C | >100 | >10 |
| O=C(Nc1ccc(-c2ccc(NC(=O)[C@@H]3CCCN3C(=O)Cc3ccccc3)cc2)cc1)[C@@H]1CCCN1C(=O)Cc1ccccc1 | <10 | <10 |
